For experiment [1], the system named is IL-17 induced IL-6 release from human dermal fibroblasts. The experiment is described as follows: Inhibition of IL-17A induced IL-6 release from dermal fibroblast cell line (HDF cell line assay). In kind it is cell-based. Here is the method: Inhibition of IL-17A Induced IL-6 Release from Dermal Fibroblast Cell Line
The purpose of this assay is to test the neutralising ability to IL-17 proteins, in a human primary cell system.
The resultant IL-6 response was then measured using a homogenous time-resolved FRET kit from Cisbio. The kit utilises two monoclonal antibodies, one labelled with Eu-Cryptate (Donor) and the second with d2 or XL665 (Acceptor).
The ability of a compound to inhibit IL-17 induced IL-6 release from human dermal fibroblasts is measured in this assay.
The TrypLE was neutralised using complete medium (45 mL) and the cells were centrifuged at 300×g for 3 minutes. […] The cells were left for a minimum of three hours, at 37° C./5% CO2, to adhere to the plate.
10 μL from the aqueous dilution plate was transferred to the reagent plate containing 30 μL of the diluted cytokines, to give a 2.5% DMSO solution. The compounds were incubated with the cytokine mixtures for 1 h or 5 h at 37° C. After the incubation, 10 μL was transferred to the assay plate, to give a […] solution, then incubated for 18-20 h at 37° C./5% CO2.

Experiment [2] deals with T1, interaction between IL-17A and soluble IL-17 Receptor A (IL-17RA) (Homo sapiens, UniProt Q16552).
T1 construct: made in house; host or cells: IL-17A-Fc: CHO SXE cells; IL-17RA: Expi HEK293 cells
T1 sequence (Q16552 24-155): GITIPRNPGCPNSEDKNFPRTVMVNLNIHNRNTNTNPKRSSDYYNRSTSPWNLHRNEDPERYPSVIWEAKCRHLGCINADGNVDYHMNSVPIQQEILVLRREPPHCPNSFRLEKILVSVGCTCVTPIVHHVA
In words: IL-17 FRET assay. The following applies: IL-17A binding to IL-17RA. Here is the method:
The purpose of this assay is to test the ability of compounds to disrupt the interaction between IL-17A and soluble IL-17 Receptor A (IL-17RA). The ability of a compound to inhibit IL-17A binding to IL-17RA is measured in this assay.
An IL-17AA-TEV-Human Fc construct was expressed in a CHO SXE cell system and purified by protein A chromatography and size exclusion. The protein was labelled with an amine reactive AlexaFluor 647 dye (Thermo Fisher #A20006), as per manufacturer's instruction.
Soluble IL-17RA (33-317)-HKH-TEV-Fc was expressed in an Expi HEK293 cell system and purified by protein A chromatography and size exclusion. The Fc tag was cleaved by TEV, producing IL-17RA (33-317)-HKH, and the protein was labelled with amine reactive terbium (Thermo Fisher #PV3581).
In assay buffer [Dulbecco's PBS (Sigma #14190-094), 0.05% P20 (Thermo Scientific #28320), 1 mg/mL BSA (Sigma #A2153-500G)] the following solutions were prepared:
• IL-17A-Fc-AF647 at 5 nM • IL-17RA-HKH-Tb at 5 nM
Compounds were serially diluted in DMSO before receiving an aqueous dilution into a 384 well dilution plate (Greiner #781281), to give a 25% DMSO solution.
IL-17A (10 μL) was added to a black low volume assay plate (Costar #4511) and diluted compound (5 μL) was transferred from the aqueous dilution plate. The cytokine and compound were allowed to incubate for 1 h, then IL-17RA (10 μL) was added. The plates were wrapped in foil and incubated at room temperature for 18-20 h with gentle shaking (<400 rpm) before being read on a Perkin Elmer Envision plate reader (Excitation: 330 nm; Emission 615/645 nm).
The final assay concentrations were IL-17A-AF647 2 nM and IL-17RA-Tb 2 nM, 5% DMSO.

Where a name gives a salt, the structure may show the parent alone.

For orientation: IC50 means the midpoint of a concentration-inhibition curve. Read a high IC50 as weaker potency in that assay.

Turning to `Cc1nonc1C(=O)N[C@H](c1nc2c(F)c(C(CC(F)(F)F)C(=O)N3CC(F)(F)C3)ccc2[nH]1)C1CCC(F)(F)CC1` (stereo partly drawn) [Example 7, N—[(S)-{5-[1-(3,3-Difluoroazetidine-1-carbonyl)-3,3,3-trifluoropropyl]-4-fluoro-1H-benzimidazol-2-yl}(4,4-difluorocyclohexyl)methyl]-4-methyl-1,2,5-oxadiazole-3-carboxamide], the IC50 in experiment [1] (Incubation Time 5 h) and in experiment [2] was 15.8 nM in each case. As for `Cc1nonc1C(=O)N[C@H](c1nc2nc(C3(C(=O)NCC4CC4(F)F)CCOCC3)ccc2[nH]1)C1CCC(F)(F)CC1` (stereo partly drawn) [Example 24, N—[(S)-(4,4-Difluorocyclohexyl)(5-{4-[(2,2-difluorocyclopropyl)methylcarbamoyl]-tetrahydropyran-4-yl}-1H-imidazo[4,5-b]pyridin-2-yl)methyl]-4-methyl-1,2,5-oxadiazole-3-carboxamide], the figures for the IC50 in experiment [1] (Incubation Time 5 h) and in experiment [2] were 6.31 nM and 25.1 nM, respectively. On the same counts, the results for `Cn1nccc1C(=O)N[C@H](c1nc2c(F)c(C(CC(F)(F)F)C(=O)N3CC(F)(F)C3)ccc2[nH]1)C1CCC(F)(F)CC1` (stereo partly drawn) [Example 8, N—[(S)-{5-[1-(3,3-Difluoroazetidine-1-carbonyl)-3,3,3-trifluoropropyl]-4-fluoro-1H-benzimidazol-2-yl}(4,4-difluorocyclohexyl)methyl]-2-methylpyrazole-3-carboxamide] are 25.1 nM and 100 nM. With `[2H]C([2H])([2H])n1nccc1C(=O)N[C@H](c1nc2c(F)c(C3(C(=O)N4CC(F)(F)C4)CC(F)(F)C3)ccc2[nH]1)C1CCC(F)(F)CC1` [Example 18, N—[(S)-{5-[1-(3,3-Difluoroazetidine-1-carbonyl)-3,3-difluorocyclobutyl]-4-fluoro-1H-benzimidazol-2-yl}(4,4-difluorocyclohexyl)methyl]-2-(trideuteriomethyl)pyrazole-3-carboxamide], the IC50 in experiment [1] (Incubation Time 1 h) was 79.4 nM; in experiment [2], 158 nM. Consider `Cc1nonc1C(=O)N[C@H](c1nc2c(F)c(C3(C(=O)N4CC(F)(F)C(F)(F)C4)CCOCC3)ccc2[nH]1)C1CCC(F)(F)CC1` [Example 19, N—[(S)-(4,4-Difluorocyclohexyl){4-fluoro-5-[4-(3,3,4,4-tetrafluoropyrrolidine-1-carbonyl)tetrahydropyran-4-yl]-1H-benzimidazol-2-yl}methyl]-4-methyl-1,2,5-oxadiazole-3-carboxamide], for which the figures for the IC50 in experiment [1] (Incubation Time 5 h) and in experiment [2] were 3.98 nM and 12.6 nM, respectively. For `Cc1nonc1C(=O)N[C@H](c1nc2c(F)c([C@@H](CC(F)(F)F)C(=O)NCC(F)F)ccc2[nH]1)C1CCC(F)(F)CC1` (single isomer, unassigned) [Example 38], it took 100 nM to reach half-maximal inhibition in experiment [1] (Incubation Time 5 h) (IC50). `CC(C)n1ncnc1C(=O)N[C@H](c1nc2c(F)c(C(CC(F)(F)F)C(=O)NCC(C)(C)F)ccc2[nH]1)C1CCC(F)(F)CC1` (mixture of isomers) [Example 71, N—[(S)-(4,4-Difluorocyclohexyl)(4-fluoro-5-{3,3,3-trifluoro-1-[(2-fluoro-2-methyl-propyl)carbamoyl]propyl}-1H-benzimidazol-2-yl)methyl]-2-isopropyl-1,2,4-triazole-3-carboxamide]: inhibition in experiment [1] (Incubation Time 5 h) was half-maximal at 25.1 nM (IC50). Against the preceding compound, the IC50 is about 4-fold lower. Take `CC(C)n1ncnc1C(=O)N[C@H](c1nc2c(F)c([C@@H](CC(C)(F)F)C(=O)NCC(C)(F)F)ccc2[nH]1)C1CCC(F)(F)CC1` (single isomer, unassigned) [Example 86]: the half-inhibitory concentration (IC50) in experiment [1] (Incubation Time 5 h) was 6310 nM. On the same count and under the same terms, as for `Cc1nonc1C(=O)N[C@H](c1nc2c(F)c(C(CC(F)(F)F)C(=O)NCC(F)F)ccc2[nH]1)C1CCC(F)(F)CC1` (mixture of isomers) [Example 36, N—[(S)-(4,4-Difluorocyclohexyl){5-[1-(2,2-difluoroethylcarbamoyl)-3,3,3-trifluoro-propyl]-4-fluoro-1H-benzimidazol-2-yl}methyl]-4-methyl-1,2,5-oxadiazole-3-carboxamide], the figure is 31.6 nM; as for `CC(C)n1ncnc1C(=O)N[C@H](c1nc2c(F)c(C(CC(F)(F)F)C(=O)NCC(C)(F)F)ccc2[nH]1)C1CCC(F)(F)CC1` (mixture of isomers) [Example 68, N—[(S)-(4,4-Difluorocyclohexyl){5-[1-(2,2-difluoropropylcarbamoyl)-3,3,3-trifluoro-propyl]-4-fluoro-1H-benzimidazol-2-yl}methyl]-2-isopropyl-1,2,4-triazole-3-carboxamide], 12.6 nM.

In experiment [1] (Incubation Time 5 h), `O=C(N[C@H](c1nc2c(F)c([C@H](CC(F)F)C(=O)NCC(F)(F)F)ccc2[nH]1)C1CCC(F)(F)CC1)c1ccccc1F` (single isomer, unassigned) [Example 50] showed an IC50 of 10 nM. Same read-out and setting: the value for `Cc1nonc1C(=O)N[C@H](c1nc2nc(C3(C(=O)NCC(F)(F)F)CCC(F)(F)CC3)ccc2[nH]1)C1CCC(F)(F)CC1` [Example 39, N—[(S)-(4,4-Difluorocyclohexyl){5-[4,4-difluoro-1-(2,2,2-trifluoroethylcarbamoyl)-cyclohexyl]-1H-imidazo[4,5-b]pyridin-2-yl}methyl]-4-methyl-1,2,5-oxadiazole-3-carboxamide Monoformate Salt] was 5.01 nM; that for `Cc1nonc1C(=O)N[C@H](c1nc2c(F)c(C(CC(F)F)C(=O)N[C@H](C)C(F)(F)F)ccc2[nH]1)C1CCC(F)(F)CC1` (mixture of isomers) [Example 46, N—{(S)-(4,4-Difluorocyclohexyl)[5-(3,3-difluoro-1-{[(1R)-2,2,2-trifluoro-1-methylethyl]-carbamoyl}propyl)-4-fluoro-1H-benzimidazol-2-yl]methyl}-4-methyl-1,2,5-oxadiazole-3-carboxamide] was 398 nM.

On to `O=C(N[C@H](c1nc2nc(C3(C(=O)NCC(F)(F)F)CCC(F)(F)CC3)ccc2[nH]1)C1CCC(F)(F)CC1)C1(F)CC1` [Example 78, 1-(2-{(S)-(4,4-Difluorocyclohexyl)[(1-fluorocyclopropanecarbonyl)amino]methyl}-1H-imidazo[4,5-b]pyridin-5-yl)-4,4-difluoro-N-(2,2,2-trifluoroethyl)cyclohexanecarboxamide], for which half-maximal inhibition in experiment [1] (Incubation Time 5 h) (IC50) required 15.8 nM. On the same count and under the same terms, the value for `CC(C)n1ncnc1C(=O)N[C@H](c1nc2c(F)c([C@H](CC(F)F)C(=O)NCC(C)(C)F)ccc2[nH]1)C1CCC(F)(F)CC1` (single isomer, unassigned) [Example 58] was 7.94 nM; that for `CCS(=O)(=O)CCC(C(=O)N1CC(F)(F)C(F)(F)C1)c1ccc2[nH]c([C@@H](NC(=O)c3nonc3C)C3CCC(F)(F)CC3)nc2c1F` (mixture of isomers) [Example 27, N—[(S)-(4,4-Difluorocyclohexyl){5-[3-(ethylsulfonyl)-1-(3,3,4,4-tetrafluoropyrrolidine-1-carbonyl)propyl]-4-fluoro-1H-benzimidazol-2-yl}methyl]-4-methyl-1,2,5-oxadiazole-3-carboxamide] was 6.31 nM; that for `CC(C)(F)CNC(=O)C(CC(F)(F)F)c1ccc2[nH]c([C@@H](NC(=O)c3nonc3C3CC3)C3CCC(F)(F)CC3)nc2c1F` (mixture of isomers) [Example 62, 4-Cyclopropyl-N—[(S)-(4,4-difluorocyclohexyl)(4-fluoro-5-{3,3,3-trifluoro-1-[(2-fluoro-2-methylpropyl)carbamoyl]propyl}-1H-benzimidazol-2-yl)methyl]-1,2,5-oxadiazole-3-carboxamide] was 5.01 nM. The same measure, in the same setting: as for `CC(C)n1ncnc1C(=O)N[C@H](c1nc2c(F)c([C@H](CC(F)(F)F)C(=O)NCC(C)(F)F)ccc2[nH]1)C1CCC(F)(F)CC1` (single isomer, unassigned) [Example 70], the figure is 6.31 nM.

The values are drawn from patent publication US12662475B2, “Difluorocyclohexyl derivatives as IL-17 modulators” (UCB BIOPHARMA SRL, priority 2020, dated 2026).
